Laboratory results taken from ChEMBL document CHEMBL1124125, “6-(Alkylamino)-3-aryl-1,2,4-triazolo[3,4-a]phthalazines. A new class of benzodiazepine receptor ligands” (J Med Chem, 1988).

Key:
[1] = target: GABA-A receptor; anion channel; assay: Inhibition of [3H]diazepam binding to GABA-A central benzodiazepine receptor of rat brain homogenate
Mus musculus [2] = assay: Dose that prevented tonic extensor seizures and death in 50% of the mice.(ip); format: functional
[3] = Lethal dose when given intraperitoneally in mice; format: toxicity, organism-based; details: mouse, in vivo, ip
[4] = target: T1, GABA-A receptor; anion channel (Rattus norvegicus) (UniProt O09028+P15431+P18506+P18508+P19969+P20236+P23574+P23576+P28471+P28473+P30191+P62813+P63079+P63138+Q91ZM7+Q9ES14); assay: Relative inhibition of [3H]diazepam binding to GABA-A receptor of rat forebrain in the presence and absence of GABA(10e-4M)
Mus musculus [5] = assay: Inhibition of Anti-pentylenetetrazole-induced convulsions in mice following i.p. administration.; format: functional; details: ip
[6] = target: T1, GABA-A receptor; anion channel (Rattus norvegicus); assay: GABA ratio (IC50/IC50 in the presence of 10e-4 GABA).; format: protein-complex assay
Rattus norvegicus = assay: Minimal effective dose (MED, ip) that significantly increased the number of shocks (anticonflict); format: functional; details: read-out: MED
Mus musculus [7] = assay: Antagonism of Diazepam muscle relaxant effect by compound (10 mg/kg, ip) was measured as the ratio of fallen/treated mice.; format: functional
Mus musculus [8] = assay: Antagonism of Diazepam muscle relaxant effect by compound (30 mg/kg, ip) was measured as the ratio of fallen/treated mice.; format: functional

Row | SMILES | Ki [1] | ED50 (Mus musculus [2]) | LD50 [3] | Ratio [4] | ED50 (Mus musculus [5]) | Ratio [6] | minimal effective dose (Rattus norvegicus) | Fallen/treated (Mus musculus [7]) | Fallen/treated (Mus musculus [8])
1 | CCNc1nn2c(-c3ccccc3)nnc2c2ccccc12 | 37.6 nM | > 50 mg/kg | 200 mg/kg | 0.9 | – | – | – | – | –
2 | Brc1ccccc1-c1nnc2c3ccccc3c(N3CCCC3)nn12 | 760 nM | > 100 mg/kg | 600 mg/kg | – | – | – | – | – | –
3 | Cc1ccc(-c2nnc3c4ccccc4c(N4CCCC4)nn23)cc1C | 1970 nM | > 50 mg/kg | 300 mg/kg | – | – | – | – | – | –
4 | CCN(C)c1nn2c(-c3ccccc3)nnc2c2ccccc12 | 14.4 nM | – | 300 mg/kg | – | ≥ 50 mg/kg | 1.1 | – | – | –
5 | COCCN(CCOC)c1nn2c(-c3ccc(N(C)C)cc3)nnc2c2ccccc12 | 2650 nM | – | 200 mg/kg | – | 20 mg/kg | – | – | – | –
6 | O=[N+]([O-])c1cc(-c2nnc3c4ccccc4c(N4CCCC4)nn23)ccc1Cl | 908 nM | > 50 mg/kg | 200 mg/kg | – | – | – | – | – | –
7 | CCN(CC)c1nn2c(-c3ccccc3)nnc2c2ccccc12 | 41 nM | > 100 mg/kg | 600 mg/kg | 0.9 | – | – | – | – | –
8 | COCCN(CCOC)c1nn2c(-c3ccc(C)cc3)nnc2c2ccccc12 | 44 nM | – | 400 mg/kg | – | 20.4 mg/kg | 1.9 | 10 mg/kg | – | –
9 | CN(C)c1ccc(-c2nnc3c4ccccc4c(N4CCCC4)nn23)c(Cl)c1 | 393 nM | > 100 mg/kg | 600 mg/kg | – | – | – | – | – | –
10 | COCCN(CCOC)c1nn2c(-c3ccc(OC)c(C)c3)nnc2c2ccccc12 | 1820 nM | > 100 mg/kg | 400 mg/kg | – | – | – | – | – | –
11 | CNc1nn2c(-c3ccccc3)nnc2c2ccccc12 | 46.3 nM | > 60 mg/kg | 300 mg/kg | 1 | – | – | – | – | –
12 | CCOc1cc(OCC)c(-c2nnc3c4ccccc4c(N4CCCC4)nn23)cc1OCC | > 3000 nM | > 50 mg/kg | 300 mg/kg | – | – | – | – | – | –
13 | COc1ccc(-c2nnc3c4ccccc4c(N(C)CC(C)O)nn23)cc1 (stereo unspecified) | 17 nM | 9.8 mg/kg | 300 mg/kg | – | – | 1.4 | 10 mg/kg | – | –
14 | FC(F)(F)c1cccc(-c2nnc3c4ccccc4c(N4CCCC4)nn23)c1 | > 3000 nM | – | 600 mg/kg | – | ≥ 100 mg/kg | – | – | – | –
15 | CCCCCOc1ccc(-c2nnc3c4ccccc4c(N4CCCC4)nn23)cc1OC | > 3000 nM | > 50 mg/kg | 200 mg/kg | – | – | – | – | – | –
16 | COc1cc(-c2nnc3c4ccccc4c(N4CCCC4)nn23)cc(Br)c1OC | > 3000 nM | > 100 mg/kg | 600 mg/kg | – | – | – | – | – | –
17 | CN(C)c1nn2c(-c3ccccc3)nnc2c2ccccc12 | 20.8 nM | > 75 mg/kg | 400 mg/kg | 1.1 | – | – | – | 5 | 2
18 | Oc1ccc(-c2nnc3c4ccccc4c(N4CCCC4)nn23)cc1 | 11 nM | > 100 mg/kg | 600 mg/kg | – | – | 1.1 | – | – | –
19 | c1ccc(-c2nnc3c4ccccc4c(N4CCCC4)nn23)cc1 | 15.6 nM | > 75 mg/kg | 400 mg/kg | – | – | 1.1 | – | 4 | 2
20 | CC(=O)Nc1ccc(-c2nnc3c4ccccc4c(N4CCCC4)nn23)cc1 | 36 nM | – | 600 mg/kg | – | ≥ 100 mg/kg | 1.1 | – | – | –
21 | COCCN(CCOC)c1nn2c(-c3cccc(Cl)c3)nnc2c2ccccc12 | 307 nM | – | 600 mg/kg | – | ≥ 100 mg/kg | – | – | – | –
22 | CN(C)c1ccc(-c2nnc3c4ccccc4c(N4CCCC4)nn23)cc1 | 1720 nM | – | 300 mg/kg | – | ≥ 75 mg/kg | – | – | – | –

Row | SMILES | Ki [1] | ED50 (Mus musculus [2]) | LD50 [3] | Ratio [4] | ED50 (Mus musculus [5]) | Ratio [6] | minimal effective dose (Rattus norvegicus) | Fallen/treated (Mus musculus [7]) | Fallen/treated (Mus musculus [8])
23 | COCCN(CCOC)c1nn2c(-c3ccccc3)nnc2c2ccccc12 | 66 nM | 34.2 mg/kg | 200 mg/kg | 1.6 | – | – | 15 mg/kg | – | –
24 | CC(C)(C)Nc1nn2c(-c3ccccc3)nnc2c2ccccc12 | 565 nM | – | 300 mg/kg | – | ≥ 50 mg/kg | – | – | – | –
25 | NC(=O)c1ccc(-c2nnc3c4ccccc4c(N4CCCC4)nn23)cc1 | 113 nM | – | 200 mg/kg | – | ≥ 50 mg/kg | 1.1 | – | – | –
26 | CN1CCN(c2nn3c(-c4ccccc4)nnc3c3ccccc23)CC1 | 37.7 nM | > 50 mg/kg | 300 mg/kg | – | – | 0.9 | – | – | –
27 | COCCNc1nn2c(-c3ccc(OC)cc3)nnc2c2ccccc12 | 5.4 nM | – | 200 mg/kg | – | ≥ 50 mg/kg | 1.1 | – | – | –
28 | Nc1nn2c(-c3ccccc3)nnc2c2ccccc12 | 243 nM | – | 600 mg/kg | – | ≥ 100 mg/kg | – | – | – | –
29 | COCCN(CCOC)c1nn2c(-c3ccc(O)cc3)nnc2c2ccccc12 | 4.1 nM | > 50 mg/kg | 600 mg/kg | – | – | 1 | – | – | –
30 | c1ccc(-c2ccc(-c3nnc4c5ccccc5c(N5CCCC5)nn34)cc2)cc1 | > 3000 nM | > 75 mg/kg | 400 mg/kg | – | – | – | – | – | –
31 | CCOc1c(Br)cc(Br)cc1-c1nnc2c3ccccc3c(N3CCCC3)nn12 | > 3000 nM | > 100 mg/kg | 600 mg/kg | – | – | – | – | – | –
32 | COCCN(CCOC)c1nn2c(-c3cccc(C)c3)nnc2c2ccccc12 | 181 nM | > 100 mg/kg | 300 mg/kg | – | – | – | – | – | –
33 | COCCN(CCOC)c1nn2c(-c3ccc(F)cc3)nnc2c2ccccc12 | 20 nM | – | 600 mg/kg | – | 60.1 mg/kg | 1.5 | – | – | –
34 | COc1ccc(-c2nnc3c4ccccc4c(N4CCCC4)nn23)cc1OC | > 3000 nM | > 100 mg/kg | 500 mg/kg | – | – | – | – | – | –
35 | O=C(O)c1ccc(-c2nnc3c4ccccc4c(N4CCCC4)nn23)cc1 | > 3000 nM | > 75 mg/kg | 400 mg/kg | – | – | – | – | – | –
36 | CC(C)Nc1nn2c(-c3ccccc3)nnc2c2ccccc12 | 306 nM | > 75 mg/kg | 400 mg/kg | – | – | – | – | – | –
37 | COc1cc(OC)c(-c2nnc3c4ccccc4c(N4CCCC4)nn23)cc1OC | 1930 nM | > 50 mg/kg | 300 mg/kg | – | – | – | – | – | –
38 | c1ccc(-c2nnc3c4ccccc4c(N4CCOCC4)nn23)cc1 | 14 nM | – | 300 mg/kg | – | ≥ 100 mg/kg | 0.95 | – | – | –
39 | COCCN(CCOC)c1nn2c(-c3ccc(Cl)cc3)nnc2c2ccccc12 | 17 nM | 60.1 mg/kg | 600 mg/kg | – | – | 1.3 | – | – | –
40 | N#Cc1ccc(-c2nnc3c4ccccc4c(N4CCCC4)nn23)cc1 | 102 nM | – | 600 mg/kg | – | ≥ 100 mg/kg | 1.1 | – | – | –
41 | COCCN(CCOC)c1nn2c(-c3ccc(OC(C)C)cc3)nnc2c2ccccc12 | 142 nM | 20.7 mg/kg | 600 mg/kg | – | – | 1.8 | 10 mg/kg | – | –
42 | CCCCNc1nn2c(-c3ccccc3)nnc2c2ccccc12 | 243 nM | – | 600 mg/kg | – | ≥ 100 mg/kg | – | – | – | –
43 | c1ccc(CNc2nn3c(-c4ccccc4)nnc3c3ccccc23)cc1 | 243 nM | > 75 mg/kg | 400 mg/kg | – | – | – | – | – | –
44 | c1ccc(-c2nnc3c4ccccc4c(N4CCCCC4)nn23)cc1 | 16 nM | – | 600 mg/kg | – | ≥ 100 mg/kg | 1 | – | – | –
